From patent publication US7173063B1, “Topoisomerase poisons for the treatment of proliferative disorders” (Fred Hutchinson Cancer Research Center, priority 2000, dated 2007)
Like-named read-outs stand apart in the source and are kept apart here.

How the values were obtained:
[1] = tested on: DSB repair defective rad50 and rad52 strains of Saccharomyces cerevisiae; type: cell-based; conditions: for toxicity in wild-type strains: highest concentration used
Text: The strains are derived from the A364a genetic background, with the exception of BY4705, which is derived from the S288C background. Gene disruptions were generated by PCR fragment directed replacement (Baudin, et al., Nucleic Acids Research 21: 3329–30 (1993), Guldener, et al., Nucleic Acids Research 24: 2519–24 (1996)). Yeast overexpressing topoisomerase II was constructed by a PCR fragment directed promoter replacement of the topoisomerase II promoter with the yeast GPD promoter flanked upstream by the URA3 marker. All strains (except BY4705) bear the pleitropic drug sensitizing mutations erg6, pdr1, and pdr3 (Balzi, et al., Journal of Bioenergetics & Biomembranes 27: 71–6 (1995), Delaveau, et al, Molecular & General Genetics 244: 501–11 (1994), Gaber, et al., Molecular & Cellular Biology 9: 3447–56 (1989), Saunders, et al., Canadian Journal of Genetics & Cytology, 24: 493–503 (1982). Subik, et al, Current Genetics 10: 665–70 (1986)). The haploid yeast strain BY4705 (Brachmann, et al., Yeast 14: 115–32 (1998)) was used in the experiments described in FIG. 5. Plasmids expressing yeast or human topoisomerase I genes under the GAL promoter (Knab, et al., Journal of Biological Chemistry 268: 22322–30 (1993). Knab, et al., Journal of Biological Chemistry 270: 6141–8 (1995)) were transformed into BY4705 using standard procedures.
Yeast toxicity assays were performed essentially as follows: Exponentially growing cultures of the appropriate strains were diluted in synthetic complete media to a concentration of 7.4×10^4 cells/mL, and aliquots (135 μL) were transferred to each well of clear flat-bottomed 96 well plates. Compounds were added in duplicate or triplicate as 15 μL of the appropriate dilution in 5% DMSO. A 15 μL portion of 5% DMSO was added to control wells. […] Cell growth (OD660) in treated wells was plotted as a percentage of the growth in at least four averaged solvent control wells for the same strain. Camptothecin sodium salt (camptothecin Na) was the agent used in all yeast assays as standard.

purified Topo I = molecular target: T1, purified Topo I (Homo sapiens, UniProt P11387); experiment: In vitro assay for DNA strand-break formation in the presence of purified Topo I; type: biochemical; conditions: purified Topo I, in vitro; data not shown
T1 sequence (P11387 1-765): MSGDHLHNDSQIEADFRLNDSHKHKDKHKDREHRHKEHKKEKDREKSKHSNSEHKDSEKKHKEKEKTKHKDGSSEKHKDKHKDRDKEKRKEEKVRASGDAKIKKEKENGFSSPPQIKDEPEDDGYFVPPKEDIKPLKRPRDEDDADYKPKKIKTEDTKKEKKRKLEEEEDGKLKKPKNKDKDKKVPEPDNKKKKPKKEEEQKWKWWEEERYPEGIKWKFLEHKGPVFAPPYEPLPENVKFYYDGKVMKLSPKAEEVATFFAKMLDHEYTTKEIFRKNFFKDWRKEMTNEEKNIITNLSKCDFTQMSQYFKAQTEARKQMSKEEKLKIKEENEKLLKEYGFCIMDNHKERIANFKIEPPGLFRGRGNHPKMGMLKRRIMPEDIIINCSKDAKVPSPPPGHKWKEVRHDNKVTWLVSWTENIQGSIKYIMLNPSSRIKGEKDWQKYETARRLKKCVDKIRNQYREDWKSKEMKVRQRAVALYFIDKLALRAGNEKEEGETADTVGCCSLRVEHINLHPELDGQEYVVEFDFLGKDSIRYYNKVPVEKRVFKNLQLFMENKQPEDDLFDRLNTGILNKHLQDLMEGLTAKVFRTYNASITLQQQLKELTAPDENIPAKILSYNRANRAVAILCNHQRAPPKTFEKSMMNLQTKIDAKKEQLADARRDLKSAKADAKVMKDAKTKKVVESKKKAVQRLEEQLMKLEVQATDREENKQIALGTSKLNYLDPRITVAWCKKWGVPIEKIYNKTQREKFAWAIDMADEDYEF

ACHN, SW620, A549, MDA-N = experiment: Thymidine incorporation toxicity assay in four cancer derived cell lines; type: cell-based, human; conditions: for correlation between MDR1 activity and toxicity/sensitivity: A549, SW620, ACHN (MDR1 10, 31, 120); for toxicity in human cancer and vertebrate cells: FIG. 4
Description: Cell lines were grown at 37° C. in an atmosphere of 5% CO2. The chicken pre-B cell line DT40 and its derivatives (Bezzubova, et al., Cell 89: 185–93 (1997), Takata, et al., EMBO Journal 17: 5497–508 (1998), Yamaguchi-Iwai, et al., Molecular & Cellular Biology 18: 6430–5 (1998)) were grown in RPMI containing 10% fetal calf serum and 1% chicken serum. The remaining cell lines were grown in DMEM with 10% fetal calf serum.
Toxicity assays in mammalian cell lines were performed using tritiated thymidine incorporation as a measure of the number of viable cells. […] Drug toxicity was measured as follows:
Cells were plated at a density of 500 cells per well in opaque 96 well plates (Packard) in a volume of 135 μL per well of the appropriate media. The plates were incubated overnight to allow cell adherence. Seven two-fold dilutions of the test compounds were added in a volume of 15 μL per well in triplicate, and 15 μL of media containing an appropriate concentration of DMSO was added to control wells in triplicate. Plates were incubated at 37° C. for 96 hours. The media was then replaced with 100 μL per well of the appropriate media containing 2 μCi/mL of (methyl-^3H) thymidine (Amersham Pharmacia Biotech), then plates were incubated for a further 24 hours at 37° C. Cells were washed three times with PBS, then 100 μL per well of scintillant was added (Microscint 20, Packard), and sealed plates were counted in a microplate reader (Packard Topcount). For suspension chicken cells, (methyl-^3H) thymidine was added directly to the drug-containing media at a concentration of 20 μCi/mL (comprising one tenth of the media volume) and incubated overnight. The suspension cells were transferred to a UniFilter GF/C plate (Packard) and washed with PBS in a plate washer (Packard). After drying, 25 μL per well of scintillant (Microscint 20, Packard) was added, and sealed plates were counted. Toxicity is expressed as a percentage of the control counts. For experiments involving shorter exposures to compounds, cells were grown in the presence of compound for the appropriate time, then the media was replaced with fresh drug-free media, and incubation continued for the remainder of 96 hours, followed by the normal tritiated thymidine uptake and washing protocol.
A common mechanism of tumor resistance to chemotherapeutic agents is overexpression of the drug efflux protein MDR1 (Kane, et al., Advances in Drug Research 28: 182–252 (1996), Nooter, et al., Leukemia Research 18: 233–43 (1994)). MDR1 is overexpressed in many tumor derived cell lines (for instance see http://dtp.nci.nih.gov/), and its overexpression inversely correlates with sensitivity to certain compounds (Kane, et al., Advances in Drug Research 28: 182–252 (1996)).

[2] = relative growth (OD660) vs solvent control

O=C(CCl)Nc1ccc(C(=O)N/N=C/c2ccc(Cl)cc2)cc1 [compound Ia]
influence of sensitizing mutations erg6 pdr1 and pdr3 on yeast sensitivity [1]: strongly influenced | toxicity in wild-type strains [1]: neither compounds Ia or IIa produce toxicity | profile of selective toxicity: toxic to rad50 and rad52 strains, not toxic in rad14 or rad18 strains [1, 2]: fit the profile for selective toxicity | strand-break induction (purified Topo I): did not detect strand-break induction | correlation between MDR1 activity and toxicity/sensitivity (ACHN, SW620, A549, MDA-N): No correlation | toxicity in human cancer and vertebrate cells (ACHN, SW620, A549, MDA-N): toxic in human cancer and vertebrate cells | cell line against which most effective (ACHN, SW620, A549, MDA-N; four tumor derived cell lines): most effective against the colon carcinoma derived cell line SW620 | differences in toxicity between the cell lines (ACHN, SW620, A549, MDA-N; four tumor derived cell lines): no significant differences in toxicity

CC(=O)[C@]1(O)Cc2c(O)c3c(c(O)c2[C@@H](O[C@H]2C[C@H](N)[C@H](O)[C@H](C)O2)C1)C(=O)c1ccccc1C3=O [idarubicin, reference compound]
profile of selective toxicity: toxic to rad50 and rad52 strains, not toxic in rad14 or rad18 strains [1]: Agents with this profile include

O=c1c(Cl)c(Cl)cnn1CCCl [compound IIa]
toxicity in wild-type strains [1]: neither compounds Ia or IIa produce toxicity | profile of selective toxicity: toxic to rad50 and rad52 strains, not toxic in rad14 or rad18 strains [1, 2]: fit the profile for selective toxicity | strand-break induction (purified Topo I): did not detect strand-break induction | relative sensitivity of ACHN and A549 (ACHN, SW620, A549, MDA-N): ACHN is more sensitive than A549 | correlation between MDR1 activity and toxicity/sensitivity (ACHN, SW620, A549, MDA-N): No correlation | toxicity in human cancer and vertebrate cells (ACHN, SW620, A549, MDA-N): toxic in human cancer and vertebrate cells | cell line against which most effective (ACHN, SW620, A549, MDA-N; four tumor derived cell lines): most effective against the colon carcinoma derived cell line SW620
